# In US8470964B2, “Peptides derived from NCAM (FGLs)” (Enkam Pharmaceuticals A/S, priority 2007, dated 2013):
# Entries after “also recorded” stand apart in the source; their conditions may differ. Where no end group is shown, it is not given here.
# What was measured:
# [1] = tested on: scopolamine induced social amnesia model in adult rats; experiment: Scopolamine induced social amnesia model (SRT); assay type: in vivo, rat; conditions: 8 mg/kg s.c. twice, 19 hours interval
# Description: FIG. 7. Effects of subcutaneous administration of FGLL FGLs, and VEB1 (2 administrations with a 19 hours interval, at 8 mg/kg) on the scopolamine induced social amnesia as evaluated in the Social Recognition Test (SRT). The rats were tested with the initial trial of SRT performed 5 h after the last administration of peptide/vehicle and 30 minutes after scopolamine (0.01 mg/kg s.c.) administration. The juvenile rat was presented twice with an inter-trial interval of 15 minutes.
# A—Recognition ratios (RR) of rats treated with scopolamine and vehicle (Veh) or scopolamine and one of the three peptides as detailed above. Results are shown as Mean and SEM of recognition ratio (RR). […] Comparisons of RR values to a hypothetical value 0.50 were carried out using one-sample t-test. In each experimental group data were obtained from 10 rats.
# B—Cumulative investigation time (T1, in seconds) during the first trial of the SRT of rats treated with scopolamine and vehicle (Veh) or scopolamine and one of the three peptides as detailed above. Results are shown as Mean and SEM of T1. Comparison between groups were carried out by ANOVA followed by Dunnett Multiple Comparison Test. In each experimental group data were obtained from 10 rats.
# FGLs was tested for efficacy in the scopolamine induced social amnesia model in adult rats (Van Kampen et al., 2004). […]
# adult male Wistar rats = experiment: Morris Water Maze spatial learning; assay type: in vivo, rat; conditions: 2.5 mg/kg s.c. as a single dose 5, 3 and 1 day prior to training; versus vehicle
# Description: FIG. 6. Effects of FGLs on spatial learning in the Morris Water Maze. Rats received FGLs or vehicle subcutaneously as a single dose of 2.5 mg/kg 5, 3 and 1 day prior to first test (trials 1-4 in above graph). The second test (trials 5-8 in above graph) took place the day after the first test. The results were analysed using analysis of variance (ANOVA) and Student's t-test. Data are mean escape latency(s) (±SEM) to find the platform over the 2 training days (t1-t4). *p<0.05, when compared with the Vehicle/Control group at the same time point.
# The aim of this study was to investigate whether the subcutaneous administration of FGLs modulates spatial learning in adult male Wistar rats, using the Morris Water Maze as test system.
# In the MWM test, rats are evaluated in the task to learn and remember the location of an escape platform hidden just under the water surface. In this study the test set-up was optimised for measuring learning. Rats received FGLs 2.5 mg/kg or vehicle subcutaneously as a single dose 5, 3 and 1 day prior the start of the training in the MWM.
# [2] = tested on: primary cerebellar granule rat cells (CGC); experiment: Neurite outgrowth of cerebellar granule neurons; assay type: cell-based; conditions: CGC from 7-day old Wistar rats, 24 hrs; bell-shaped dose response
# Description: FIG. 2. Effects of FGLs on neurite outgrowth of early postnatal rat cerebellar neurons. CGCs were prepared from 7-day old Wistar rats and plated on uncoated eight-well Lab-Tek® chamber The peptide was added to the medium immediately after plating, and cells were maintained at 37° C., 5% CO2 for 24 hrs. CGC cultures were fixed in 4% and then immunostained against rat GAP-43. Neurite outgrowth was determined by image analysis of 200±20 neurons in each individual experiment. The length of neuronal processes per cell was estimated stereologically. The results are given as mean values±SEM from at least three independent experiments and illustrated as percentage of control values. *p<0.05 when compared with control by paired t-test.
# This study investigated the effect of FGLs on neurite outgrowth of dissociated primary cerebellar granule rat cells (CGC) cultured in vitro.
# Efficacy is found over a range of concentrations corresponding to that of target (FGFR) activation and follows the same bell-shaped dose-response.
# [3] = tested on: rat model of (25-35) β-amyloid induced neurotoxicity; experiment: (25-35) β-amyloid induced neurotoxicity, subcutaneous administration: SRT and neuropathology; assay type: in vivo
# Description: FIG. 8. The effect of FGLs (administered subcutaneously at the stated doses), or vehicle on the development of cognitive impairment (deficit in short-term social memory) and neurodegeneration after (25-35) β-amyloid (A-β) fragment neurointoxication. Comparisons of RR values to a hypothetical value 0.50 were carried using one-sample t-test. Intergroup comparisons between A-β groups were carried out using One Way ANOVA and Newman-Keuls post-hoc test and comparison between A-β vehicle and sham-operated animals by un-paired t-test.
# In the rat model of (25-35) β-amyloid induced neurotoxicity (Delobette et al., 1997; Maurice et al., 1996), (25-35) aggregated β-amyloid neurotoxin is injected intracerebroventricularly leading to progressive deterioration of short-term memory (clearly detectable using the Social Recognition Test (SRT) with a 30-minute inter-trial interval (ITI) (Kogan et al., 2000), and to neurodegeneration in cortex and hippocampus characterized by increases in amyloid burden, tau phosphorylation and micro- and macro-glia activation, as well as neuronal loss (Klementiev et al., 2007).
# In this study, 3.2, 0.8, 0.2 mg/kg of FGLs or sterile PBS were administered daily by subcutaneous injection. Administration was started 7 days after i.c.v. administration of an aggregated form of the (25-35) β-amyloid peptide fragment and continued until day 28 when the rats were terminated.
# The social memory performance was estimated, using the SRT 21-22 days after i.c.v. administration of the β-amyloid fragment.
# A significant neuroprotective effect of FGLs was detected in both areas. The minimum effective dose of FGLs for neuroprotection was 0.8 mg/kg, in hippocampus and 0.2 mg/kg in cingulate cortex.
# [4] = daily s.c. from day 7, neuropathology at day 28
substance,measurement,setting,value
"FGLs: two identical 11 amino acid peptides (VAENQQGKSKA), forming a dimer through a linker molecule (iminodiacetic acid); peptide amide (VAENQQGKSKA-NH2; not fully specified; also: dimer of two identical peptides through iminodiacetic acid linker, attachment site not given here)",cumulative investigation time at the first encounter (T1) versus scopolamine and vehicle,[1]; scopolamine 0.01 mg/kg s.c.,significantly longer T1 than rats treated with vehicle; also recorded: significant difference in the cumulative investigation time at the first encounter
same,recognition ratio (RR) versus theoretical value 0.5 in scopolamine treated rats,"[1]; test 5 h after last dose, 30 minutes after scopolamine 0.01 mg/kg s.c.",Significant effects against scopolamine induced social amnesia; also recorded: RR significantly different from the theoretical value of 0.5
same,spatial learning in Morris Water Maze (escape latency),adult male Wistar rats,learned significantly faster than vehicle treated ones
same,concentration range with neurite outgrowth promoting activity,[2],5 to 25 µg/mL
same,short-term memory deficit in SRT compared to placebo-treated rats,"[3]; 0.8 mg/kg s.c. daily, SRT 21-22 days after i.c.v. β-amyloid",statistically significant reduction in the short-term memory deficit
same,PRESENCE OF A SIGNIFICANT PEPTIDE EFFECT: SRT short-term social recognition memory,"[3]; daily s.c. 0.2, 0.8, 3.2 mg/kg from day 7, SRT 21-22 days after i.c.v. β-amyloid",YES (p < 0.01)^1
same,EFFECTIVE DOSE OR DOSE RANGE: SRT short-term social recognition memory,"[3]; daily s.c. from day 7, SRT 21-22 days after i.c.v. β-amyloid",0.8 mg/kg
same,EFFECTIVE DOSE OR DOSE RANGE: Density Intact neurons Cingulate cortex,[3]; [4],0.8 mg/kg
same,EFFECTIVE DOSE OR DOSE RANGE: Density Intact neurons Hippocampus (CA3),[3]; [4],0.8 mg/kg
same,EFFECTIVE DOSE OR DOSE RANGE: Density damaged neurons Cingulate cortex,[3]; [4],0.2 mg/kg
same,EFFECTIVE DOSE OR DOSE RANGE: Density damaged neurons Hippocampus (CA3),[3]; [4],0.8 mg/kg
same,PRESENCE OF A SIGNIFICANT PEPTIDE EFFECT: Density Intact neurons Cingulate cortex,[3]; [4],Yes (p < 0.05)^3
same,PRESENCE OF A SIGNIFICANT PEPTIDE EFFECT: Density Intact neurons Hippocampus (CA3),[3]; [4],YES (P < 0.05)
same,PRESENCE OF A SIGNIFICANT PEPTIDE EFFECT: Density damaged neurons Cingulate cortex,[3]; [4],"YES (p < 0.01,"
same,PRESENCE OF A SIGNIFICANT PEPTIDE EFFECT: Density damaged neurons Hippocampus (CA3),[3]; [4],YES (p < 0.05)^3
same,minimum effective dose for neuroprotection in cingulate cortex,"[3]; daily s.c., day 28",0.2 mg/kg
same,minimum effective dose for neuroprotection in hippocampus,"[3]; daily s.c., day 28",0.8 mg/kg
same,β-amyloid burden in the cingulate cortex,"[3]; daily s.c., day 28, large variability among animals","Neither the lesion, nor the peptide had significant effects; also recorded: did not reach significance"
same,minimum effective dose for neuroprotection,[3]; subcutaneous administration,0.2 mg/kg
same,"minimum effective dose, social recognition memory deficit",[3]; subcutaneous administration,0.8 mg/kg
